SMILES strings stand for the structures.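 Where inhibition never reached the appropriate level, the endpoint shown equals the highest concentration tested. Otherwise, values were interpolated linearly from a five-concentration, 48-hour dose response in 96-well plates. The concentration for 50% growth inhibition is given as GI50. TGI marks complete inhibition of growth.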 A value given as a limit tells only on which side of the number the result lay.

Some test systems named below: SK-OV-3 ovarian; ACHN renal; SN12C renal; SK-MEL-2 melanoma; HL-60(TB) leukemia; TK-10 renal; SNB-75 CNS; IGROV1 ovarian.
Test in all cases: growth of human tumour cells (NCI), 48 h

As for `COc1cc2c3c(n(CCCN=[N+]=[N-])c(=O)c2cc1OC)-c1ccc(F)cc1C3=O`, the GI50 in the test with SK-OV-3 ovarian is 11.6 µM; in the test on ACHN renal it was 3.8 µM; with SN12C renal, 8.26 µM; in the test on SK-MEL-2 melanoma it was more than 100 µM; in the test on HL-60(TB) leukemia it was 44.4 µM; in the test on TK-10 renal, 73.7 µM. Moreover, the GI50 with SNB-75 CNS is 21.1 µM. In addition, the TGI with SK-OV-3 ovarian, in the test with ACHN renal, in the test on SN12C renal, with SK-MEL-2 melanoma, in the test with HL-60(TB) leukemia and in the test on TK-10 renal was more than 100 µM in each case. For the same compound, the TGI with SNB-75 CNS is 90.2 µM.

Regarding `COc1ccc(C)c2sc(N(Cc3cccnc3)C(=O)c3ccc(C#N)cc3)nc12`, the GI50 in the test with IGROV1 ovarian is 52 µM; with SK-OV-3 ovarian it was more than 100 µM; in the test with ACHN renal it was 34.7 µM; in the test with SN12C renal, 44.2 µM; with HL-60(TB) leukemia, 31.1 µM; in the test with TK-10 renal it was 58.4 µM. Further, the TGI with IGROV1 ovarian, in the test with SK-OV-3 ovarian, in the test on ACHN renal, in the test on SN12C renal, in the test on HL-60(TB) leukemia and with TK-10 renal was more than 100 µM each time.

As to `CCCN(CCC)c1ccc(/C=N/NC(=O)c2cccnc2)c(C)c1`, the GI50 in the test with IGROV1 ovarian was 16 µM; in the test on SK-OV-3 ovarian it was 18.1 µM; in the test with ACHN renal it was 24.5 µM; with SN12C renal it was 17.5 µM; in the test on HL-60(TB) leukemia it was 13.4 µM; in the test with TK-10 renal it was 16 µM. For the same compound, the GI50 in the test with SNB-75 CNS is 12.5 µM. Besides, the TGI was 39.7 µM with IGROV1 ovarian; 46.9 µM in the test with SK-OV-3 ovarian; more than 100 µM in the test with ACHN renal; 41.2 µM in the test on SN12C renal; 39.5 µM in the test on HL-60(TB) leukemia; 38.5 µM in the test on TK-10 renal. Besides, the TGI in the test on SNB-75 CNS is 36.1 µM.

As to `COc1cc2c3c(n(CCCN=[N+]=[N-])c(=O)c2cc1OC)-c1ccccc1C3=O`, the GI50 in the test with SK-OV-3 ovarian is more than 100 µM; in the test with ACHN renal it was 1.21 µM; with SN12C renal it was 13.7 µM; in the test with SK-MEL-2 melanoma it was more than 100 µM; in the test with TK-10 renal, 13.8 µM; with SNB-75 CNS, 2.53 µM. Moreover, the TGI is more than 100 µM in the test on SK-OV-3 ovarian; 4.65 µM in the test on ACHN renal; more than 100 µM with SN12C renal; more than 100 µM in the test on SK-MEL-2 melanoma; 75.5 µM with TK-10 renal; 8.49 µM with SNB-75 CNS.

On to `COc1ccc(-c2cnc(-c3ccc(OC)cc3)n2-c2cc(OC)c(OC)c(OC)c2)cc1`, for which the GI50 with IGROV1 ovarian was 28.3 µM; with SK-OV-3 ovarian it was 23.1 µM; in the test on SN12C renal it was 20.8 µM; in the test on SK-MEL-2 melanoma, 32.3 µM; in the test with TK-10 renal it was 20.5 µM; in the test on SNB-75 CNS, 12.6 µM. For the same compound, the TGI with IGROV1 ovarian is more than 100 µM; in the test with SK-OV-3 ovarian it was 72.3 µM; in the test on SN12C renal, 56.7 µM; with SK-MEL-2 melanoma, more than 100 µM; in the test with TK-10 renal, 39.2 µM; in the test on SNB-75 CNS it was 30.1 µM.

Regarding `COc1ccc(C2c3ccc4ccccc4c3Oc3ncn(CCCn4ccnc4)c(=N)c32)cc1OC` (stereo not given), the GI50 is 6.04 µM in the test with IGROV1 ovarian; 5.8 µM in the test on SK-OV-3 ovarian; 4.42 µM in the test with ACHN renal; 3.64 µM in the test with SN12C renal; 2.04 µM in the test on HL-60(TB) leukemia; 4 µM in the test with TK-10 renal. Moreover, the GI50 with SNB-75 CNS is 2.12 µM. Also, the TGI stood at 21.8 µM with IGROV1 ovarian; 18.4 µM in the test on SK-OV-3 ovarian; 16.2 µM with ACHN renal; 17.7 µM with SN12C renal; 4.05 µM in the test with HL-60(TB) leukemia; 14.4 µM with TK-10 renal. Besides, in the test on SNB-75 CNS, the TGI is 8.13 µM.

Regarding `COc1ccc(OC)c(N2CC(O)=C(c3nc4ccccc4s3)C2=N)c1`, the GI50 with IGROV1 ovarian was 33.1 µM; in the test on SK-OV-3 ovarian, more than 100 µM; in the test with ACHN renal it was 51.6 µM; in the test on SN12C renal, 58 µM; in the test on SK-MEL-2 melanoma it was 26.1 µM; in the test with TK-10 renal, more than 100 µM. Moreover, in the test with SNB-75 CNS, the GI50 was 32 µM. Moreover, the TGI in the test with IGROV1 ovarian, in the test on SK-OV-3 ovarian, in the test on ACHN renal, with SN12C renal, in the test on SK-MEL-2 melanoma and in the test with TK-10 renal was more than 100 µM in each case. For the same compound, the TGI in the test with SNB-75 CNS is more than 100 µM.

For the compound `COc1cc(OC)c(C(=O)/C=C/c2ccc(C#N)cc2)c(OC)c1`, the GI50 was 1.56 µM in the test on IGROV1 ovarian; 2.05 µM with SK-OV-3 ovarian; 1.29 µM with ACHN renal; 1.82 µM with SN12C renal; 1.46 µM with SK-MEL-2 melanoma; 1.71 µM with TK-10 renal. Further, the GI50 in the test on SNB-75 CNS is 1.27 µM. In addition, the TGI in the test with IGROV1 ovarian was 7.75 µM; in the test on SK-OV-3 ovarian, more than 50 µM; with ACHN renal it was 4.74 µM; with SN12C renal, 7.91 µM; in the test with SK-MEL-2 melanoma it was 4.43 µM; with TK-10 renal it was 24 µM. The TGI with SNB-75 CNS was determined as 6.62 µM.

As for `CCCCN(CCCC)P(=O)(Oc1ccccc1)Oc1ccccc1`, the GI50 with SK-OV-3 ovarian is 14.9 µM; in the test on ACHN renal, 5.78 µM; in the test on SN12C renal, 5.53 µM; in the test on SK-MEL-2 melanoma, 11.8 µM; with HL-60(TB) leukemia, 4.54 µM; in the test with TK-10 renal, 15.8 µM. Further, the GI50 in the test with SNB-75 CNS was 11.3 µM. Moreover, the TGI in the test with SK-OV-3 ovarian amounted to 33.6 µM; with ACHN renal it was 19.3 µM; in the test with SN12C renal, 19.7 µM; with SK-MEL-2 melanoma it was 28 µM; in the test with HL-60(TB) leukemia, 18.7 µM; with TK-10 renal, 33.1 µM. In the test on SNB-75 CNS, this compound yielded a TGI of 27.3 µM.

For `CCCCCN(CCCCC)CCC[C@@H](C)[C@H]1CC[C@H]2[C@@H]3[C@H](OCCCN)C[C@@H]4C[C@H](OCCCN)CC[C@]4(C)[C@H]3C[C@H](OCCCN)[C@]12C`, the GI50 was 2.72 µM in the test with IGROV1 ovarian; 15.9 µM in the test on SK-OV-3 ovarian; 8.8 µM with ACHN renal; 4.33 µM in the test on SN12C renal; 15.1 µM in the test with SK-MEL-2 melanoma; 2.14 µM with HL-60(TB) leukemia. The GI50 in the test with SNB-75 CNS is 7.52 µM. Moreover, the TGI with IGROV1 ovarian was 15 µM; in the test with SK-OV-3 ovarian it was 34.9 µM; in the test on ACHN renal it was 35 µM; in the test on SN12C renal it was 18.8 µM; in the test with SK-MEL-2 melanoma, 31.3 µM; in the test with HL-60(TB) leukemia it was 5.81 µM. In addition, in the test with SNB-75 CNS, the TGI stood at 22.8 µM.

Regarding `COc1ccc(O)c(/C=N\Nc2ccccc2)c1`, the TGI with SK-OV-3 ovarian is more than 100 µM; in the test with ACHN renal it was more than 100 µM; in the test with SN12C renal it was more than 100 µM; in the test with SK-MEL-2 melanoma, more than 100 µM; in the test with HL-60(TB) leukemia, 17.4 µM; in the test with SNB-75 CNS, more than 100 µM.

The record behind these values is PubChem BioAssay (NCI).
